# What was measured:
# [1] = system: chick embryo heart cells; experiment: Effect on proliferation of chick embryo heart cells in the presence of a growth inhibitor, KCN (Experiments 3 and 4); type: cell-based; settings: for activity at 50 µg/mL / activity at 20 µg/mL: Gallus gallus; for activity at 20 µg/mL: 24 h
# Method: After washing with calcium and magnesium-free phosphate buffered saline (PBS), the pieces of hearts were treated with a solution of 0.1% trypsin in PBS freed from calcium and magnesium ions, and the supernatant fraction was discarded. The residue was treated with a solution of 0.1% trypsin in PBS freed from calcium and magnesium ions, and the supernatant fractions containing isolated cells were collected. The procedure was repeated 3 times. The supernatant fractions were combined and diluted with cold culture medium containing 10% fetal calf serum, sodium penicillin G (100 units per ml) and sulfate streptomycin (1 μg per ml), and centrifuged at 150 xG. […] One ml of the suspension was poured into each of 28 culture tubes which were equally divided into 7 groups. The cells were cultured at 37° C in an incubator. After 1 day of incubation the culture medium of the tubes was removed and 1 ml of each culture medium containing compound shown in Table I was added thereto. After additional 3 days of incubation the culture medium was removed and the cells were then treated with 1 ml of 0.1 M citric acid containing 0.1% crystal violet. The number of cells was counted with a hemocytometer in quadruplicate after vigorous shaking. […] After 3 days of incubation, the culture medium was removed and 1 ml of each culture medium containing compounds shown in Table II was added thereto. After an additional 1 day of incubation the number of cells was counted. […] Method: The culture procedure for chick embryo heart cells was employed as described in Experiment 1. After one day of incubation, the culture medium was removed and 1 ml of each culture medium containing KCN (1.7 μg per ml) and compounds shown in Table III were added thereto.
# [2] = system: chick embryo heart cells; experiment: Effect on proliferation of chick embryo heart cells (Experiments 1 and 2); type: cell-based; settings: for Cell number + S.E. / activity at 50 µg/mL: Experiment 1, 50 μg/ml; for Cell number + S.E.: 3 days incubation; for activity at 50 µg/mL / activity at 20 µg/mL: Gallus gallus, control = 100.0; for activity at 50 µg/mL: 72 h, read-out: Growth rate %; for Cell number ± S.E. / activity at 20 µg/mL: Experiment 2, 20 μg/ml; for Cell number ± S.E.: 1 day with compound after 3 days of incubation; for activity at 20 µg/mL: 24 h, read-out: Growth rate (%); for cell-proliferating activity (in words): summary statement, Tables I to V
# Method: A. Effect of S-inosylcysteine on proliferation of chick embryo heart cells.
# (§1) Method: The hearts excised from 13-day-old chick embryos were cut into pieces 1 to 2 mm in diameter under sterile conditions. After washing with calcium and magnesium-free phosphate buffered saline (PBS), the pieces of hearts were treated with a solution of 0.1% trypsin in PBS freed from calcium and magnesium ions, and the supernatant fraction was discarded. The residue was treated with a solution of 0.1% trypsin in PBS freed from calcium and magnesium ions, and the supernatant fractions containing isolated cells were collected. The procedure was repeated 3 times. The supernatant fractions were combined and diluted with cold culture medium containing 10% fetal calf serum, sodium penicillin G (100 units per ml) and sulfate streptomycin (1 μg per ml), and centrifuged at 150 xG. The resulting pellet was washed twice with the culture medium and diluted cautiously with the same culture medium to give a suspension which contains 200,000 cells per ml. One ml of the suspension was poured into each of 28 culture tubes which were equally divided into 7 groups. The cells were cultured at 37° C in an incubator. After 1 day of incubation the culture medium of the tubes was removed and 1 ml of each culture medium containing compound shown in Table I was added thereto. After additional 3 days of incubation the culture medium was removed and the cells were then treated with 1 ml of 0.1 M citric acid containing 0.1% crystal violet. The number of cells was counted with a hemocytometer in quadruplicate after vigorous shaking.
# (§2) Method: The culture procedure for chick embryo heart cells was employed as described in Experiment 1. After 3 days of incubation, the culture medium was removed and 1 ml of each culture medium containing compounds shown in Table II was added thereto. After an additional 1 day of incubation the number of cells was counted.
# [3] = system: chick embryo heart cells; experiment: Effect on proliferation of chick embryo heart cells in the presence of 6-mercaptopurine (Experiment 5); type: cell-based; settings: Experiment 5, 20 μg/ml, 6-mercaptopurine 5 μg per ml; for activity at 20 µg/mL: Gallus gallus, 24 h
# Method: as §1, §2
# Method: Same as in Experiment 2 except that 6-mercaptopurine (5 μg per
# ml) was added to each culture
# [4] = system: pylorus ligation ulcer; experiment: Effect on pylorus ligation ulcer in rats (Experiments 6 and 7); type: in vivo, Male Wister rats; settings: for anti-ulcer activity (in words): summary statement, Tables VI to VIII
# Method: a. Effect of S-inosylcysteine on pylorus ligation ulcer.
# (§3) Method: Male Wister rats (Keari Gifu-Lab.), aged 7 weeks were used. After fasting for 48 hours, rats weighing 210 to 230 g were divided into 6 groups of 10 rats. The pylorus of stomach was ligated under light anesthesia with pentobarbital sodium (25 mg per kg, i.p.). Immediately after the ligation, a psysiological saline was orally administered to one group and a solution of each tested compound (50 mg per kg) was orally administered to the remaining 5 groups. After these rats were kept without food and water for 10 hours from the ligation, the stomach was removed under anesthesia with pentobarbital sodium (30 mg per kg, i.p.). The gastric contents were aspirated and the stomach was fixed by means of the injection of 10 ml of a 2% formalin solution into the lumen. The stomach was opened along its greater curvature. The severity of the lesion of the rumen, that is, the degree of ulcer was expressed as ulcer index according to the method of Yokotani (Folia pharmacol. Japon. 56, 1373, (1960). The results are shown in Table VI.
# *Inhibition rate was calculated as follows: […]
# Method: The same method as described in Experiment 6 was employed. The
# effect of S-inosyl-L-cysteine
# on pylorus ligation ulcer was examined with intramuscular administration.
# [5] = system: gastric secretion; experiment: Effect on gastric secretion in pylorus-ligated rats; type: in vivo, Male Wister rats; settings: 50 mg/kg, p.o., 5 hours from ligation
# Method: as §3
# b. Effect of S-inosylcysteine on gastric secretion. Method: The rats were ligated in the same manner as in Experiment 6, and divided into 2 groups of 10 rats. Immediately after the ligation, a physiological saline or a solution of S-inosyl-L-cysteine was orally administered. After the rats were kept without food and water for 5 hours from the ligation, the esophagus was ligated and the stomach was removed under anesthesia with pentobarbital sodium (30 mg per kg. i.p.). The gastric contents were collected and centrifuged at 2,000 rpm for 10 minutes. The volume of supernatant was measured and its pH was determined with a pH meter (Hitach-Horiba Type M-5). Free-HCl, total-HCl and total-acidity in the supernatant were determined by the titration with 1/50 N NaOH using Topfer's solution and phenolphtalein solution as an indicator.
# [6] = Experiment 3, 50 μg/ml, KCN 1.7 μg per ml
# [7] = Experiment 3, 50 μg/ml, KCN 1.7 μg per ml, KCN control = 100.0, read-out: Growth Rate %
# [8] = Experiment 3, 50 μg/ml, KCN 1.7 μg per ml, simultaneous with Experiment 1, read-out: Growth rate (%) with respect to control of Table I
# [9] = Experiment 4, 20 μg/ml, KCN 1.7 μg per ml
# [10] = Experiment 4, 20 μg/ml, KCN 1.7 μg per ml, KCN control = 100.0, read-out: Growth rate (%)
# [11] = Experiment 4, 20 μg/ml, KCN 1.7 μg per ml, simultaneous with Experiment 2, read-out: Growth rate (%) with respect to control of Table II
# [12] = its control = 100.0, read-out: Growth Rate (%)
# [13] = simultaneous with Experiment 2, read-out: Growth rate (%) with respect to control of Table II
# [14] = Experiment 6, 50 mg/kg, p.o., 10 hours from ligation
SMILES,"Cell number ± S.E. [1, 6]","activity at 50 µg/mL [1, 7] [%]","activity at 50 µg/mL [1, 8] [%]",Cell number + S.E. [2],activity at 50 µg/mL [2] [%],"Cell number ± S.E. [1, 9]","activity at 20 µg/mL [1, 10] [%]","activity at 20 µg/mL [1, 11] [%]",Cell number ± S.E. [2],activity at 20 µg/mL [2] [%],Cell number ± S.E. [3],"activity at 20 µg/mL [3, 12] [%]","activity at 20 µg/mL [3, 13] [%]","Inhibition rate (%) of ulcer ([4]; Experiment 6, 50 mg/kg, p.o.) [%]","Mean ulcer index ± S.E. [4, 14]",also measured
N[C@@H](CS)C(=O)O [L-cysteine],41.9 ± 6.3 ×10^4 cells,131,82.3,50.5 ± 1.3 ×10^4 cells,99.2,–,–,–,–,–,–,–,–,–,–,–
Nc1ncnc2c1ncn2[C@@H]1O[C@H](CSC[C@H](N)C(=O)O)[C@@H](O)[C@H]1O [S-adenosyl-L-cysteine],–,–,–,–,–,64.2 ± 3.0 ×10^4 cells,97.6,78.7,74.8 ± 4.7 ×10^4 cells,91.7,70.7 ± 1.2 ×10^4 cells,104,86.6,13,12.1 ± 1.2,–
Nc1ncnc2c1ncn2[C@@H]1O[C@H](CSCC[C@H](N)C(=O)O)[C@@H](O)[C@H]1O [S-adenosyl-L-homocysteine],–,–,–,–,–,65.2 ± 1.8 ×10^4 cells,99.1,79.9,71.5 ± 3.4 ×10^4 cells,87.6,75.7 ± 1.6 ×10^4 cells,111,92.8,19,11.3 ± 0.7,–
Nc1nc2c(ncn2[C@@H]2O[C@H](CSCC[C@H](N)C(=O)O)[C@@H](O)[C@H]2O)c(=O)[nH]1 [S-guanosyl-L-homocysteine],–,–,–,–,–,66.3 ± 1.4 ×10^4 cells,101,81.3,69.2 ± 1.8 ×10^4 cells,84.8,72.3 ± 5.5 ×10^4 cells,106,88.6,-8,15.0 ± 1.8,–
"N[C@@H](CSC[C@H]1O[C@@H](n2cnc3c(=O)[nH]cnc32)[C@H](O)[C@@H]1O)C(=O)O [S-inosyl-L-cysteine, 5'-S-(2-amino-2-carboxyethyl)-5'-thioinosine]",50.9 ± 1.5 ×10^4 cells,159,100,65.4 ± 1.6 ×10^4 cells,128,85.6 ± 0.4 ×10^4 cells,130,105,97.8 ± 3.8 ×10^4 cells,120,85.8 ± 2.9 ×10^4 cells,126,105,42,8.1 ± 1.1,"Free-HCl, inhibition rate % [5]: 36%; Total-HCl, inhibition rate (%) [5]: 23%; Total-acidity [5]: 83.2 mEq/l; Total-acidity, inhibition rate (%) [5]: 22%; Volume, inhibition rate (%) [5]: 38%; pH (gastric contents supernatant) [5]: 1.50 ± 0.06; Free-HCl ([5]; ± S.E.): 42.8 ± 6.0 mEq/l; Total-HCl ([5]; ± S.E.): 73.8 ± 6.4 mEq/l; Volume (gastric contents supernatant) ([5]; ± S.E.): 5.3 ± 0.5 mL; cell-proliferating activity (in words) ([2]; listed as S-inosycysteine): superior to those of known related compounds (2) to (10); cell-proliferating activity (in words) ([2]; listed as S-inosylcysteine): remarkable; cell-proliferating activity (in words) ([2]; listed as S-inosylsteine): excellent; Inhibition rate (%) of ulcer ([4]; Experiment 7, 50 mg/kg, i.m.): 59%; Mean ulcer index ± S.E. ([4]; Experiment 7, 50 mg/kg, i.m.): 5.1 ± 1.6; anti-ulcer activity (in words) ([4]; listed as S-inosyl cysteine): superior to those of known related compounds (7) to (10); anti-ulcer activity (in words) ([4]; listed as S-inosylsteine): excellent"
N[C@@H](CCSC[C@H]1O[C@@H](n2cnc3c(=O)[nH]cnc32)[C@H](O)[C@@H]1O)C(=O)O [S-inosyl-L-homocysteine],–,–,–,–,–,73.5 ± 1.7 ×10^4 cells,112,90.1,78.2 ± 7.5 ×10^4 cells,95.8,65.3 ± 3.7 ×10^4 cells,95.6,80,12,12.3 ± 1.1,–
Nc1ncnc2c1ncn2[C@@H]1O[C@H](CO)[C@@H](O)[C@H]1O [adenosine],33.3 ± 1.9 ×10^4 cells,–,–,44.1 ± 5.6 ×10^4 cells,86.6,–,–,–,–,–,–,–,–,–,–,activity at 50 µg/mL ([1]; read-out: Growth Rate %): 104%; activity at 50 µg/mL ([1]; read-out: Growth rate (%) with respect to control of Table I): 65.4%
OC[C@H]1O[C@@H](n2cnc3c(O)ncnc32)[C@H](O)[C@@H]1O [inosine],37.2 ± 4.4 ×10^4 cells,116,73.1,54.1 ± 2.0 ×10^4 cells,106,–,–,–,–,–,–,–,–,–,–,–

# Reference: patent US4011221A, “S-Inosylcysteine and a process for producing the same” (Funai Pharmaceutical Industries, Ltd., priority 1974, dated 1977)
